This passage reports GI50 and TGI results from PubChem BioAssay (NCI).

Some test systems named below: A549 NSCLC; IGROV1 ovarian; NCI-H522 lung; NCI/ADR-RES ovarian; OVCAR-5 ovarian; OVCAR-8 ovarian; SK-OV-3 ovarian; SNB-19 CNS; SNB-75 CNS; U251 CNS.
Common to all, as to experiment: NCI anticancer screen, dose series, 48 h

Molecules are shown by their SMILES.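 Cultured in 96-well plates, cells were exposed to test compound for 48 hours across five concentrations. Here, GI50 denotes the concentration required for 50% inhibition of growth. Definition used: TGI = concentration required for complete inhibition of growth.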

As for `NC(=O)c1c(NC(=O)c2cccc(C(F)(F)F)c2)sc2c1CCC(=O)C2`, the GI50 was 1.88 µM with A549 NSCLC; 0.468 µM in the assay on IGROV1 ovarian; 0.299 µM in the assay with NCI-H522 lung; 0.528 µM with NCI/ADR-RES ovarian; 0.83 µM with OVCAR-5 ovarian; 0.519 µM with OVCAR-8 ovarian. Moreover, the GI50 in the assay on SK-OV-3 ovarian was 2.8 µM; in the assay on SNB-19 CNS it was 0.432 µM; in the assay on SNB-75 CNS, 0.507 µM; in the assay on U251 CNS, 0.307 µM. Also, the TGI with A549 NSCLC was over 100 µM; in the assay on IGROV1 ovarian, 3.47 µM; in the assay on NCI-H522 lung it was 1.62 µM; in the assay on NCI/ADR-RES ovarian, 7.69 µM; with OVCAR-5 ovarian it was 9.42 µM; in the assay on OVCAR-8 ovarian, over 100 µM. In addition, the TGI in the assay with SK-OV-3 ovarian is 8.39 µM; in the assay on SNB-19 CNS, over 100 µM; in the assay with SNB-75 CNS, 3.84 µM; in the assay with U251 CNS it was 16.6 µM.

For the compound `O=C(Nc1cccc(Cl)c1)c1cc(Cl)ccc1O`, the GI50 in the assay on A549 NSCLC is 2.67 µM; in the assay with IGROV1 ovarian it was 1.61 µM; with NCI-H522 lung, 0.32 µM; in the assay with NCI/ADR-RES ovarian, 1.64 µM; in the assay with OVCAR-5 ovarian it was 3.48 µM; with OVCAR-8 ovarian, 1.51 µM. In addition, the GI50 in the assay with SK-OV-3 ovarian is 0.582 µM; in the assay on SNB-19 CNS it was 0.481 µM; in the assay on SNB-75 CNS, 0.756 µM; in the assay with U251 CNS it was 0.841 µM. The TGI is over 79.3 µM in the assay on A549 NSCLC; over 58 µM in the assay on IGROV1 ovarian; 1.78 µM with NCI-H522 lung; over 29.4 µM in the assay with NCI/ADR-RES ovarian; over 100 µM with OVCAR-5 ovarian; 5.43 µM with OVCAR-8 ovarian. In addition, the TGI in the assay on SK-OV-3 ovarian is 2.81 µM; with SNB-19 CNS it was 36.6 µM; in the assay with SNB-75 CNS, 3.86 µM; in the assay with U251 CNS, over 38.2 µM.

In the case of `COc1ccc(-c2nc(/C=N/Nc3cc(C)nc4ccc(Br)cc34)c(C)o2)cc1`, the GI50 was 1.74 µM with A549 NSCLC; 1.72 µM with IGROV1 ovarian; 1.8 µM in the assay with NCI-H522 lung; 2.03 µM with NCI/ADR-RES ovarian; 1.95 µM with OVCAR-5 ovarian; 1.79 µM with OVCAR-8 ovarian. The GI50 was 1.7 µM in the assay with SK-OV-3 ovarian, 1.95 µM in the assay with SNB-19 CNS, 1.68 µM in the assay on SNB-75 CNS and 1.86 µM with U251 CNS. Moreover, the TGI with A549 NSCLC was 3.33 µM; in the assay on IGROV1 ovarian, 3.36 µM; in the assay with NCI-H522 lung, 3.67 µM; with NCI/ADR-RES ovarian, 4.48 µM; in the assay with OVCAR-5 ovarian, 3.41 µM; in the assay with OVCAR-8 ovarian, 3.86 µM. The TGI in the assay with SK-OV-3 ovarian is 3.12 µM; with SNB-19 CNS it was 3.73 µM; in the assay with SNB-75 CNS it was 3.28 µM; in the assay on U251 CNS, 3.39 µM.

Take `O=C(O)C(Cc1c[nH]c2ccccc12)N1C(=O)c2ccccc2C1=O` (stereo not drawn): the TGI in the assay with A549 NSCLC, in the assay on IGROV1 ovarian, in the assay with NCI-H522 lung, with NCI/ADR-RES ovarian, in the assay with OVCAR-5 ovarian and in the assay on OVCAR-8 ovarian was over 100 µM throughout. Further, the TGI in the assay with SK-OV-3 ovarian, in the assay with SNB-19 CNS, in the assay on SNB-75 CNS and in the assay on U251 CNS was over 100 µM throughout.

Regarding `Nc1ccc2c(SCC(=O)Nc3ccccc3-c3ccccc3NC(=O)CSc3c4ccccc4nc4cc(N)ccc34)c3ccccc3nc2c1`, the TGI with A549 NSCLC is over 100 µM; in the assay on IGROV1 ovarian, 83 µM; in the assay on NCI-H522 lung, 31.8 µM; with NCI/ADR-RES ovarian, over 100 µM; in the assay with OVCAR-5 ovarian, over 100 µM; with OVCAR-8 ovarian, 73.2 µM. The TGI in the assay on SK-OV-3 ovarian is over 100 µM; with SNB-19 CNS, 44.2 µM; in the assay on SNB-75 CNS it was over 96.4 µM; with U251 CNS, 66.5 µM.

Consider `NCCn1c2c(c3ccccc3c1=O)C(=O)c1ccccc1-2`, for which the TGI in the assay on A549 NSCLC was 0.676 µM; in the assay with IGROV1 ovarian, over 45.8 µM; with NCI-H522 lung, over 21.7 µM; with NCI/ADR-RES ovarian, 3.3 µM; in the assay with OVCAR-5 ovarian, 2.57 µM; with OVCAR-8 ovarian, 1.57 µM. Further, the TGI in the assay with SK-OV-3 ovarian amounted to 2.55 µM; in the assay with SNB-19 CNS it was 2.09 µM; with SNB-75 CNS, 3.2 µM; in the assay on U251 CNS, 3.59 µM. Moreover, the GI50 is 0.592 µM with IGROV1 ovarian; 1.24 µM in the assay on NCI-H522 lung; 0.647 µM with NCI/ADR-RES ovarian; 0.674 µM in the assay with OVCAR-5 ovarian; 0.0915 µM with OVCAR-8 ovarian; 0.528 µM in the assay with SK-OV-3 ovarian. Besides, the GI50 with SNB-19 CNS is 0.251 µM; with SNB-75 CNS, 1.04 µM; in the assay on U251 CNS it was 0.544 µM.

Consider `Cc1ccc2c(C(C[N+](=O)[O-])c3ccco3)c(-c3ccccc3)[nH]c2c1` (stereo not drawn), for which the GI50 with A549 NSCLC was 48.3 µM; with IGROV1 ovarian, 24.6 µM; in the assay on NCI-H522 lung, 3.92 µM; in the assay on NCI/ADR-RES ovarian it was 11.7 µM; with OVCAR-5 ovarian it was over 100 µM; in the assay on OVCAR-8 ovarian, 84.8 µM. The GI50 was 37.2 µM in the assay with SK-OV-3 ovarian, 59 µM with SNB-19 CNS, 4.75 µM with SNB-75 CNS and 46.2 µM in the assay on U251 CNS. Further, the TGI in the assay with A549 NSCLC, in the assay on IGROV1 ovarian, in the assay on NCI-H522 lung, with NCI/ADR-RES ovarian, in the assay with OVCAR-5 ovarian and with OVCAR-8 ovarian was over 100 µM in each case. In addition, the TGI with SK-OV-3 ovarian was over 100 µM; in the assay with SNB-19 CNS, over 100 µM; in the assay on SNB-75 CNS it was 71 µM; in the assay with U251 CNS it was over 100 µM.

With `CC(C)(C)OC(=O)n1c(Cl)c(C(=O)N=C=S)c2ccccc21`, the GI50 with A549 NSCLC is 50 µM; in the assay on IGROV1 ovarian, 9.65 µM; in the assay with NCI-H522 lung, 18.1 µM; in the assay on NCI/ADR-RES ovarian it was 18.5 µM; with OVCAR-5 ovarian, 23 µM; in the assay on OVCAR-8 ovarian, 23.3 µM. Moreover, the GI50 with SK-OV-3 ovarian was over 100 µM; in the assay on SNB-19 CNS, 44.4 µM; in the assay with SNB-75 CNS it was over 100 µM; with U251 CNS, 34.2 µM. Besides, the TGI was over 100 µM in the assay with A549 NSCLC; 34.7 µM in the assay on IGROV1 ovarian; 37.6 µM in the assay with NCI-H522 lung; 62.6 µM in the assay on NCI/ADR-RES ovarian; 94.3 µM with OVCAR-5 ovarian; 66.1 µM in the assay on OVCAR-8 ovarian. The TGI with SK-OV-3 ovarian, in the assay with SNB-19 CNS, with SNB-75 CNS and in the assay on U251 CNS was over 100 µM each time.

On to `CNc1ccc(N=Nc2cccc3ncccc23)cc1`, for which the GI50 with A549 NSCLC was 50.9 µM; in the assay on NCI-H522 lung it was 43.7 µM; in the assay on NCI/ADR-RES ovarian, 23.3 µM; with OVCAR-5 ovarian it was 0.0278 µM; in the assay with OVCAR-8 ovarian, 98.1 µM; in the assay with SK-OV-3 ovarian it was over 73.9 µM. Moreover, the GI50 is over 80.6 µM in the assay on SNB-19 CNS, 21.2 µM with SNB-75 CNS and 31.5 µM with U251 CNS. The TGI in the assay on A549 NSCLC, in the assay on IGROV1 ovarian, in the assay on NCI-H522 lung, in the assay on NCI/ADR-RES ovarian, with OVCAR-5 ovarian and with OVCAR-8 ovarian was over 100 µM each time. In addition, the TGI with SK-OV-3 ovarian, in the assay with SNB-19 CNS, in the assay with SNB-75 CNS and with U251 CNS was over 100 µM each time.

As for `CCCCCCCCCCCCNC(=O)[C@H]1CSC(c2ccsc2)N1` (stereo partly drawn), the GI50 in the assay on A549 NSCLC was 6.77 µM; in the assay with IGROV1 ovarian, 0.96 µM; in the assay with NCI-H522 lung it was 5.14 µM; with NCI/ADR-RES ovarian it was 1.23 µM; in the assay with OVCAR-5 ovarian it was 0.991 µM; in the assay on OVCAR-8 ovarian, 1.11 µM. The GI50 with SK-OV-3 ovarian is 0.955 µM; with SNB-19 CNS, 0.952 µM; with SNB-75 CNS it was 0.938 µM; in the assay on U251 CNS it was 0.875 µM. For the same compound, the TGI in the assay with A549 NSCLC came out at 13.7 µM; in the assay with IGROV1 ovarian, 1.92 µM; in the assay on NCI-H522 lung, 11.8 µM; in the assay with NCI/ADR-RES ovarian it was 2.56 µM; in the assay on OVCAR-5 ovarian it was 1.83 µM; in the assay with OVCAR-8 ovarian, 2.26 µM. The TGI with SK-OV-3 ovarian turned out to be 1.66 µM; in the assay on SNB-19 CNS, 1.83 µM; in the assay with SNB-75 CNS, 1.67 µM; with U251 CNS it was 1.61 µM.

Regarding `NC1(C(=O)O)CSSC1`, the GI50 with A549 NSCLC was 3.37 µM; with IGROV1 ovarian, 3.91 µM; in the assay on NCI-H522 lung, 3.41 µM; in the assay with NCI/ADR-RES ovarian, 3.46 µM; in the assay on OVCAR-5 ovarian it was 33.2 µM; in the assay with OVCAR-8 ovarian, 3.6 µM. For the same compound, the GI50 is 20.3 µM in the assay on SK-OV-3 ovarian, 3.59 µM in the assay on SNB-19 CNS, 2.91 µM in the assay with SNB-75 CNS and 3.58 µM with U251 CNS. The TGI in the assay on A549 NSCLC was over 100 µM; with IGROV1 ovarian, 29.9 µM; in the assay with NCI-H522 lung, 17.7 µM; in the assay on NCI/ADR-RES ovarian, 27.7 µM; with OVCAR-5 ovarian, 90.1 µM; in the assay with OVCAR-8 ovarian it was 24.4 µM. Also, the TGI worked out at 82.5 µM with SK-OV-3 ovarian, 84 µM in the assay with SNB-19 CNS, 21.5 µM with SNB-75 CNS and 22.6 µM with U251 CNS.

As for `COc1ccc(-c2conc2-c2ccccc2)cc1`, the GI50 is 0.502 µM in the assay with A549 NSCLC; 0.498 µM with IGROV1 ovarian; 0.17 µM with NCI-H522 lung; 0.142 µM in the assay on NCI/ADR-RES ovarian; 0.832 µM in the assay on OVCAR-5 ovarian; 0.604 µM in the assay with OVCAR-8 ovarian. For the same compound, the GI50 in the assay on SK-OV-3 ovarian is 0.501 µM; in the assay with SNB-19 CNS, 0.647 µM; in the assay on SNB-75 CNS it was 0.109 µM; with U251 CNS, 0.468 µM. Also, the TGI in the assay with A549 NSCLC is over 100 µM; in the assay with IGROV1 ovarian, over 100 µM; in the assay with NCI-H522 lung, 15.9 µM; with NCI/ADR-RES ovarian it was over 100 µM; in the assay with OVCAR-5 ovarian it was over 100 µM; in the assay on OVCAR-8 ovarian it was over 100 µM. Moreover, the TGI is over 100 µM in the assay with SK-OV-3 ovarian, over 100 µM with SNB-19 CNS, 0.455 µM in the assay with SNB-75 CNS and over 100 µM in the assay with U251 CNS.
